Data published in patent publication US20110190235A1, “BORON-CONTAINING SMALL MOLECULES AS ANTIPROTOZOAL AGENTS” (Anacor Pharmaceuticals, Inc., priority 2009, published 2011).
Values after ≈ are worked out from the molar mass of the structure shown.

Experiment: Kinetic solubility by nephelometric (light scattering) method
Format: physicochemical
Conditions: PBS pH 7.4

CC1(C)OB(O)c2cc(NC(=O)c3ccc(F)cc3C(F)(F)F)ccc21 [compound 82]
Solubility: 25 µM (≈ 9.18 µg/mL)
